Data from PubChem BioAssay (NCI).
Several values for one entry are separate records, joined by “and”; a condition that tells them apart may be missing. Identical values can stand only once.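 Grown in 96-well plates, cells were treated for 48 hours with each compound at five concentrations. Insufficient inhibition: endpoint recorded as highest concentration tested. TGI: concentration producing complete growth inhibition.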

System: HOP-62 NSCLC
Assay: NCI tumour cell line growth inhibition, 48 h

Compound | TGI
CCC1(C)C=Cc2c(cc(O)c3c(=O)c4ccccc4n(C)c23)O1 (configuration not stated) | > 10 µM
CC(C)(Cl)C(Br)CCC(=CCCl)CBr (mixture of isomers) | 8.33 µM
Nc1[nH]nc2nc3ccc(C(F)(F)F)cc3nc12 | 58.8 µM
CCN1CCC(O)(/C=C/c2ccc(C)cc2C)C(C(=O)/C=C/c2ccc(C)cc2C)C1 (configuration not stated) | 8.54 µM
O=[N+]([O-])/C(C(Cl)=C(Cl)Cl)=C(\N1CCCCC1)n1cncn1 | 37.7 µM
S=C(Nc1ccc2c(c1)oc1ccccc12)c1cccnc1 | 32.9 µM
O=C1c2cccnc2-c2nccc3c2c1nc1cc(Br)ccc13 | 0.362 µM
NC(CCC(=O)NC(CSCC1C(=O)Nc2ccccc21)C(=O)NCC(=O)O)C(=O)O (configuration not stated) | 38.6 µM
Cc1cc(S(=O)(=O)Nc2nc3cc(-c4ccc(Cl)cc4)sc3c(=O)n2N)c(S)cc1Cl | > 100 µM
C=C([C@@]1(O)C[C@H]2[C@H](CCC2(OC)OC)[C@@H]2c3ccccc3O[C@@H]21)[Si](C)(C)C | > 100 µM
COc1ccc2c(c1)CCN1CCc3ccccc3CC21 (configuration not stated) | > 100 µM
CN1COCc2c1ccc1cc3ccc4c(c3nc21)COCN4S(C)(=O)=O | > 100 µM
CN(C)c1ccc(C2SCC(=O)N2c2ccc(Oc3ccc(Cl)cc3)c(Cl)c2)cc1 (configuration not stated) | 41 µM
CN(C)CCOC1(Cc2ccc(F)cc2)CCC(C(C)(C)C)CC1 (configuration not stated) | 19.3 µM and 18.8 µM
Nc1ccc(C(=O)N2CCC[C@H]2CO)c(N)c1 | > 100 µM
CC1=C(CO)C(=O)O[C@@H]([C@@H](CO)[C@H]2CCC3C4C[C@@H](O)[C@@]5(O)CC=CC(=O)[C@]5(C)C4CC[C@@]32C)C1 (some centres not stated) | > 100 µM
CSc1cnc2ccccc2c1SC1CN(Cc2ccccc2)c2ccccc2C1=O (configuration not stated) | > 100 µM
C=C(Cl)C(C)(Cl)CCC(Br)C(C)(C)Cl (configuration not stated) | 53.4 µM
CCNC(=O)Nc1cccc(NC(=O)NCC)n1 | > 100 µM

System: HT29 colon
Assay: NCI tumour cell line growth inhibition, 48 h

Compound | TGI
CC12CCC(O)CC1CCC1C2CCC2(C)C(C(=O)CC(O)C(F)(F)F)CCC12 (configuration not stated) | 19.6 µM
CC(C)(C)OC(=O)NCCCNC1(c2cc3ccccc3s2)CCCCC1 | 13.4 µM
COc1ccc(N2C(=O)CSC2c2c[nH]c3ccccc23)cc1 (configuration not stated) | > 100 µM
C=CCOc1ccc(C2(O)c3ccccc3C3=NCCCN32)cc1 (configuration not stated) | > 100 µM
CCC/C(Cl)=N\OC(=O)Nc1ccc(OC(F)(F)F)cc1 | 42.4 µM
C[N+]12CCCCC1C(CN1C(=O)Cc3c4ccccc4c(c4ccccc34)CC1=O)CCC2 (configuration not stated) | > 100 µM
CC(=O)O[C@H]1CC[C@@]2(C)C(=CC[C@H]3[C@@H]4C[C@H](N5CCOCC5)[C@H](OC(C)=O)[C@@]4(C)CC[C@@H]32)C1 | > 100 µM
CCC1(C)C=Cc2c(cc(O)c3c(=O)c4ccccc4n(C)c23)O1 (configuration not stated) | > 10 µM
CC(C)(Cl)C(Br)CCC(=CCCl)CBr (mixture of isomers) | 3.55 µM
Nc1[nH]nc2nc3ccc(C(F)(F)F)cc3nc12 | > 100 µM
CCN1CCC(O)(/C=C/c2ccc(C)cc2C)C(C(=O)/C=C/c2ccc(C)cc2C)C1 (configuration not stated) | 5.44 µM
O=[N+]([O-])/C(C(Cl)=C(Cl)Cl)=C(\N1CCCCC1)n1cncn1 | 37.5 µM
S=C(Nc1ccc2c(c1)oc1ccccc12)c1cccnc1 | > 100 µM
O=C1c2cccnc2-c2nccc3c2c1nc1cc(Br)ccc13 | 2.45 µM
NC(CCC(=O)NC(CSCC1C(=O)Nc2ccccc21)C(=O)NCC(=O)O)C(=O)O (configuration not stated) | 14.7 µM
NNC(=O)CSc1nc2ccccc2c(=O)n1N | > 100 µM
Cc1cc(S(=O)(=O)Nc2nc3cc(-c4ccc(Cl)cc4)sc3c(=O)n2N)c(S)cc1Cl | > 100 µM
C=C([C@@]1(O)C[C@H]2[C@H](CCC2(OC)OC)[C@@H]2c3ccccc3O[C@@H]21)[Si](C)(C)C | > 100 µM
COc1ccc2c(c1)CCN1CCc3ccccc3CC21 (configuration not stated) | > 100 µM
CN1COCc2c1ccc1cc3ccc4c(c3nc21)COCN4S(C)(=O)=O | > 100 µM
Oc1cccc(-c2nc3cc(F)ccc3s2)c1 | 31.7 µM
CN(C)c1ccc(C2SCC(=O)N2c2ccc(Oc3ccc(Cl)cc3)c(Cl)c2)cc1 (configuration not stated) | 39.8 µM
CN(C)CCOC1(Cc2ccc(F)cc2)CCC(C(C)(C)C)CC1 (configuration not stated) | 9.5 µM and 8.3 µM
Nc1ccc(C(=O)N2CCC[C@H]2CO)c(N)c1 | > 100 µM
CC1=C(CO)C(=O)O[C@@H]([C@@H](CO)[C@H]2CCC3C4C[C@@H](O)[C@@]5(O)CC=CC(=O)[C@]5(C)C4CC[C@@]32C)C1 (some centres not stated) | > 100 µM
CSc1cnc2ccccc2c1SC1CN(Cc2ccccc2)c2ccccc2C1=O (configuration not stated) | > 100 µM
C=C(Cl)C(C)(Cl)CCC(Br)C(C)(C)Cl (configuration not stated) | 29.5 µM
CCNC(=O)Nc1cccc(NC(=O)NCC)n1 | > 100 µM

System: KM12 colon
Assay: NCI tumour cell line growth inhibition, 48 h

Compound | TGI
CC12CCC(O)CC1CCC1C2CCC2(C)C(C(=O)CC(O)C(F)(F)F)CCC12 (configuration not stated) | > 100 µM
CC(C)(C)OC(=O)NCCCNC1(c2cc3ccccc3s2)CCCCC1 | 33.1 µM
COc1ccc(N2C(=O)CSC2c2c[nH]c3ccccc23)cc1 (configuration not stated) | > 100 µM
C=CCOc1ccc(C2(O)c3ccccc3C3=NCCCN32)cc1 (configuration not stated) | > 100 µM
CCC/C(Cl)=N\OC(=O)Nc1ccc(OC(F)(F)F)cc1 | 30.8 µM
C[N+]12CCCCC1C(CN1C(=O)Cc3c4ccccc4c(c4ccccc34)CC1=O)CCC2 (configuration not stated) | > 100 µM
CC(=O)O[C@H]1CC[C@@]2(C)C(=CC[C@H]3[C@@H]4C[C@H](N5CCOCC5)[C@H](OC(C)=O)[C@@]4(C)CC[C@@H]32)C1 | > 100 µM
CCC1(C)C=Cc2c(cc(O)c3c(=O)c4ccccc4n(C)c23)O1 (configuration not stated) | > 10 µM
CC(C)(Cl)C(Br)CCC(=CCCl)CBr (mixture of isomers) | 4.04 µM
Nc1[nH]nc2nc3ccc(C(F)(F)F)cc3nc12 | > 100 µM
O=[N+]([O-])/C(C(Cl)=C(Cl)Cl)=C(\N1CCCCC1)n1cncn1 | 40.8 µM
S=C(Nc1ccc2c(c1)oc1ccccc12)c1cccnc1 | > 100 µM
O=C1c2cccnc2-c2nccc3c2c1nc1cc(Br)ccc13 | 0.338 µM
NC(CCC(=O)NC(CSCC1C(=O)Nc2ccccc21)C(=O)NCC(=O)O)C(=O)O (configuration not stated) | > 32.9 µM
NNC(=O)CSc1nc2ccccc2c(=O)n1N | > 100 µM
Cc1cc(S(=O)(=O)Nc2nc3cc(-c4ccc(Cl)cc4)sc3c(=O)n2N)c(S)cc1Cl | > 100 µM
C=C([C@@]1(O)C[C@H]2[C@H](CCC2(OC)OC)[C@@H]2c3ccccc3O[C@@H]21)[Si](C)(C)C | > 100 µM
COc1ccc2c(c1)CCN1CCc3ccccc3CC21 (configuration not stated) | > 100 µM
CN1COCc2c1ccc1cc3ccc4c(c3nc21)COCN4S(C)(=O)=O | > 100 µM
Oc1cccc(-c2nc3cc(F)ccc3s2)c1 | 34.6 µM
CN(C)c1ccc(C2SCC(=O)N2c2ccc(Oc3ccc(Cl)cc3)c(Cl)c2)cc1 (configuration not stated) | 40.9 µM
CN(C)CCOC1(Cc2ccc(F)cc2)CCC(C(C)(C)C)CC1 (configuration not stated) | 19.3 µM and 18.1 µM
Nc1ccc(C(=O)N2CCC[C@H]2CO)c(N)c1 | > 100 µM
CC1=C(CO)C(=O)O[C@@H]([C@@H](CO)[C@H]2CCC3C4C[C@@H](O)[C@@]5(O)CC=CC(=O)[C@]5(C)C4CC[C@@]32C)C1 (some centres not stated) | > 100 µM
CSc1cnc2ccccc2c1SC1CN(Cc2ccccc2)c2ccccc2C1=O (configuration not stated) | > 100 µM
C=C(Cl)C(C)(Cl)CCC(Br)C(C)(C)Cl (configuration not stated) | 42.9 µM
CCNC(=O)Nc1cccc(NC(=O)NCC)n1 | > 100 µM

System: MCF7 breast
Assay: NCI tumour cell line growth inhibition, 48 h

Compound | TGI
CC12CCC(O)CC1CCC1C2CCC2(C)C(C(=O)CC(O)C(F)(F)F)CCC12 (configuration not stated) | > 100 µM
CC(C)(C)OC(=O)NCCCNC1(c2cc3ccccc3s2)CCCCC1 | 30.6 µM
COc1ccc(N2C(=O)CSC2c2c[nH]c3ccccc23)cc1 (configuration not stated) | > 100 µM
C=CCOc1ccc(C2(O)c3ccccc3C3=NCCCN32)cc1 (configuration not stated) | > 100 µM
CCC/C(Cl)=N\OC(=O)Nc1ccc(OC(F)(F)F)cc1 | 40.3 µM
C[N+]12CCCCC1C(CN1C(=O)Cc3c4ccccc4c(c4ccccc34)CC1=O)CCC2 (configuration not stated) | > 100 µM
CC(=O)O[C@H]1CC[C@@]2(C)C(=CC[C@H]3[C@@H]4C[C@H](N5CCOCC5)[C@H](OC(C)=O)[C@@]4(C)CC[C@@H]32)C1 | > 100 µM
CCC1(C)C=Cc2c(cc(O)c3c(=O)c4ccccc4n(C)c23)O1 (configuration not stated) | > 10 µM
CC(C)(Cl)C(Br)CCC(=CCCl)CBr (mixture of isomers) | 2.62 µM
Nc1[nH]nc2nc3ccc(C(F)(F)F)cc3nc12 | 31.1 µM
CCN1CCC(O)(/C=C/c2ccc(C)cc2C)C(C(=O)/C=C/c2ccc(C)cc2C)C1 (configuration not stated) | 24.4 µM
O=[N+]([O-])/C(C(Cl)=C(Cl)Cl)=C(\N1CCCCC1)n1cncn1 | 50.6 µM
S=C(Nc1ccc2c(c1)oc1ccccc12)c1cccnc1 | > 100 µM
O=C1c2cccnc2-c2nccc3c2c1nc1cc(Br)ccc13 | 0.083 µM
NC(CCC(=O)NC(CSCC1C(=O)Nc2ccccc21)C(=O)NCC(=O)O)C(=O)O (configuration not stated) | 17.5 µM
NNC(=O)CSc1nc2ccccc2c(=O)n1N | > 100 µM
Cc1cc(S(=O)(=O)Nc2nc3cc(-c4ccc(Cl)cc4)sc3c(=O)n2N)c(S)cc1Cl | > 100 µM
C=C([C@@]1(O)C[C@H]2[C@H](CCC2(OC)OC)[C@@H]2c3ccccc3O[C@@H]21)[Si](C)(C)C | > 100 µM
COc1ccc2c(c1)CCN1CCc3ccccc3CC21 (configuration not stated) | > 100 µM
CN1COCc2c1ccc1cc3ccc4c(c3nc21)COCN4S(C)(=O)=O | > 100 µM
Oc1cccc(-c2nc3cc(F)ccc3s2)c1 | 51.4 µM
CN(C)c1ccc(C2SCC(=O)N2c2ccc(Oc3ccc(Cl)cc3)c(Cl)c2)cc1 (configuration not stated) | 89.3 µM
CN(C)CCOC1(Cc2ccc(F)cc2)CCC(C(C)(C)C)CC1 (configuration not stated) | 14.3 µM and 18.3 µM
Nc1ccc(C(=O)N2CCC[C@H]2CO)c(N)c1 | > 100 µM
CC1=C(CO)C(=O)O[C@@H]([C@@H](CO)[C@H]2CCC3C4C[C@@H](O)[C@@]5(O)CC=CC(=O)[C@]5(C)C4CC[C@@]32C)C1 (some centres not stated) | > 100 µM
CSc1cnc2ccccc2c1SC1CN(Cc2ccccc2)c2ccccc2C1=O (configuration not stated) | > 100 µM
C=C(Cl)C(C)(Cl)CCC(Br)C(C)(C)Cl (configuration not stated) | 30.8 µM
CCNC(=O)Nc1cccc(NC(=O)NCC)n1 | > 100 µM

System: MDA-MB-435
Assay: NCI tumour cell line growth inhibition, 48 h

Compound | TGI
CC12CCC(O)CC1CCC1C2CCC2(C)C(C(=O)CC(O)C(F)(F)F)CCC12 (configuration not stated) | > 100 µM
CC(C)(C)OC(=O)NCCCNC1(c2cc3ccccc3s2)CCCCC1 | 28.7 µM
COc1ccc(N2C(=O)CSC2c2c[nH]c3ccccc23)cc1 (configuration not stated) | > 100 µM
C=CCOc1ccc(C2(O)c3ccccc3C3=NCCCN32)cc1 (configuration not stated) | > 85.6 µM
CCC/C(Cl)=N\OC(=O)Nc1ccc(OC(F)(F)F)cc1 | 49.9 µM
C[N+]12CCCCC1C(CN1C(=O)Cc3c4ccccc4c(c4ccccc34)CC1=O)CCC2 (configuration not stated) | > 100 µM
CC(=O)O[C@H]1CC[C@@]2(C)C(=CC[C@H]3[C@@H]4C[C@H](N5CCOCC5)[C@H](OC(C)=O)[C@@]4(C)CC[C@@H]32)C1 | > 100 µM
CCC1(C)C=Cc2c(cc(O)c3c(=O)c4ccccc4n(C)c23)O1 (configuration not stated) | > 10 µM
CC(C)(Cl)C(Br)CCC(=CCCl)CBr (mixture of isomers) | 3.71 µM
Nc1[nH]nc2nc3ccc(C(F)(F)F)cc3nc12 | > 100 µM
CCN1CCC(O)(/C=C/c2ccc(C)cc2C)C(C(=O)/C=C/c2ccc(C)cc2C)C1 (configuration not stated) | 7.95 µM
O=[N+]([O-])/C(C(Cl)=C(Cl)Cl)=C(\N1CCCCC1)n1cncn1 | 36.3 µM
S=C(Nc1ccc2c(c1)oc1ccccc12)c1cccnc1 | > 100 µM
O=C1c2cccnc2-c2nccc3c2c1nc1cc(Br)ccc13 | 0.607 µM
NC(CCC(=O)NC(CSCC1C(=O)Nc2ccccc21)C(=O)NCC(=O)O)C(=O)O (configuration not stated) | 14.8 µM
